Assay results from patent US20200363414A1, “Neoantigen Identification for T-Cell Therapy” (Gritstone Oncology, Inc., priority 2018, published 2020).
Where no end group is shown, it is not given here.

Test system: neoantigen-reactive T-cells (patient PBMCs)
Assay: IFN-gamma ELISpot of in vitro expanded (IVS) NSCLC patient PBMCs
Type: cell-based, human
Conditions: IFN-gamma ELISpot after 14 day IVS culture of NSCLC patient PBMCs

Sequence	T-cell recognition of individual neoantigen peptide
DTVEYPYTSF	peptide-specific T-cell response was deconvolved
QDVSVQVER	peptide-specific T-cell response was deconvolved
GTKKDVDVLK	recognized by CD8 T-cells
DENITTIQF	peptide-specific T-cell response was deconvolved
EVADAATLTM	peptide-specific T-cell response was deconvolved
